Test results as given in patent US20130156768A1, “COMBINATION OF ANTI-CTLA4 ANTIBODY WITH BRAF INHIBITORS FOR THE SYNERGISTIC TREATMENT OF PROLIFERATIVE DISEASES” (Bristol-Myers Squibb Company, priority 2010, published 2013).

What was measured:
[1] = system: OVA-specific T cells; assay: Model of antigen-induced T-cell proliferation (OVA adoptive transfer, OVA-specific tetramer staining); assay type: in vivo, C57BL6 mice; settings: CTLA-4 mAb 20 mg/kg days 1, 3; BRAF inhibitor 100 mg/kg days 1, 3, 5; erlotinib 100 mg/kg p.o. daily days 1-5; FIG. 3
Description: The effect of the combination of a BRAF inhibitor and CTLA-4 mAb was evaluated in a model of antigen-induced T-cell proliferation. In this model, T cells specific for the antigen ovalbumin (OVA) were adoptively transferred into naive C57BL6 mice on study day −1. On Study Day 0, animals were challenged with 250 ug of an OVA peptide (i.v.). Animals were reandomized and divided into groups of 5. Treatments were administered as follows: CTLA-4 mAb—20 mg/kg—study days 1 and 3; Methyl {5-[2-chloro-2-methylphenyl)-1-hydroxy-3-oxo-2,3-dihydro-1H-isoindol-1-yl]-1H-benzimidazol-2-yl}carbamate—100 mg/kg—study days 1, 3, and 5. In addition, another study group received erlotinib (TARCEVA®) daily at 100 mg/kg, p.o. from study days 1 through 5. Combination groups consisted of Compound Ia and CTLA-4 mAb or erlotinib+CTLA-4 mAb following the same schedules. Control animals received the OVA challenge and no further treatment. Expansion of OVA-specific T cells was measured prior to OVA challenge and on days 2, 5, 7 and 16 by OVA-specific tetramer staining.

[2] = system: CT26 colon carcinoma; assay: Antitumor activity in the murine CT26 colon carcinoma model; assay type: in vivo; settings: for % TGI: CT26
Description: Thus, there was an interest in determining whether a potentiation of an antitumor immune response could be achieved by the combination of a CTLA-4 blocking mAb and a BRAF inhibitor in a murine CT26 colon carcinoma model.
Pharmacology studies are currently being conducted in support of the proposed clinical trial evaluating the antitumor activity of the BRAF inhibitor Methyl {5-[2-chloro-2-methylphenyl)-1-hydroxy-3-oxo-2,3-dihydro-1H-isoindol-1-yl]-1H-benzimidazol-2-yl}carbamate, and ipilimumab in subjects with advanced melanoma. Efficacy studies were conducted in the CT26 colon carcinoma, a tumor model sensitive to CTLA-4 blockade.
Two different combination schedules were evaluated, concurrent and sequential. In the concurrent setting, Methyl {5-[2-chloro-2-methylphenyl)-1-hydroxy-3-oxo-2,3-dihydro-1H-isoindol-1-yl]-1H-benzimidazol-2-yl}carbamate (100 mg/kg, p.o.) was administered every other day for […] while CTLA-4 mAb (20 mg/kg, i.p.) was dosed every 4 days for 3 doses starting on day 5. In the sequential setting, Methyl {5-[2-chloro-2-methylphenyl)-1-hydroxy-3-oxo-2,3-dihydro-1H-isoindol-1-yl]-1H-benzimidazol-2-yl}carbamate (100 mg/kg, p.o.) was dosed every other day for 4 doses from day 4-10 while CTLA-4 mAb (20 mg/kg, i.p.) was dosed every 4 days for 3 doses starting on day 11. Control groups consisted of each agent dosed in combination with vehicle control following the same schedule.

[3] = system: SA1N fibrosarcoma; assay: Antitumor activity in the SA1N fibrosarcoma tumor model; assay type: in vivo
Description: In addition, combination of both agents synergistically expanded antigen-specific T cells when dosed concurrently.
In the SA1N tumor model, the effect of the combination of both agents was investigated under either a concurrent dosing regimen or a sequential schedule.
Sa1N tumors were implanted s.c. and treatments were administered as follows: Methyl {5-[2-chloro-2-methylphenyl)-1-hydroxy-3-oxo-2,3-dihydro-1H-isoindol-1-yl]-1H-benzimidazol-2-yl}carbamate, […], 20 mg/kg, Q4D×3, starting on day 17.

[4] = system: OVA-specific T cells; assay: Second study in the OVA adoptive transfer model (OVA-specific T cell responses); assay type: in vivo, murine; settings: agent added to CTLA-4 mAb, FIG. 5
Description: In addition, combination of both agents synergistically expanded antigen-specific T cells when dosed concurrently. The effect of this promising combination was further investigated in a) a tumor model sensitive to CTLA-4 blockade (SA1N fibrosarcoma); b) in the antigen (OVA)-specific T cell model to assess the effect of Methyl {5-[2-chloro-2-methylphenyl)-1-hydroxy-3-oxo-2,3-dihydro-1H-isoindol-1-yl]-1H-benzimidazol-2-yl}carbamate at different dose levels and compared its activity to another BRAF inhibitor (EXT-000153, Genentech) and EVRI.
Previously, the unexpected expansion of antigen-specific T cells with the use of Methyl {5-[2-chloro-2-methylphenyl)-1-hydroxy-3-oxo-2,3-dihydro-1H-isoindol-1-yl]-1H-benzimidazol-2-yl}carbamate+CTLA-4 mAb in an OVA adoptive transfer model was observed (see Example 2). Thus, a second study was designed to confirm these initial observations to determine the dose effect of Methyl {5-[2-chloro-2-methylphenyl)-1-hydroxy-3-oxo-2,3-dihydro-1H-isoindol-1-yl]-1H-benzimidazol-2-yl}carbamate and to determine whether this phenomenon could also be elicited by other RAF inhibitors. In addition, EVRI, an EGFR/VEGFR inhibitor which inhibits the MAPK pathway was also included in this experiment.

SMILES	OVA tetramer response (expansion of OVA-specific T cells) [1]	% TGI ([2]; concurrent schedule, Day 26, BRAF inhibitor 100 mg/kg p.o. every other day x7 from day 4, CTLA-4 mAb 20 mg/kg i.p. every 4 days x3 from day 5) [%]	% TGI ([2]; sequential schedule, day 26, BRAF inhibitor 100 mg/kg p.o. every other day x4 day 4-10, CTLA-4 mAb 20 mg/kg i.p. every 4 days x3 from day 11) [%]	complete regressions (CR) ([2]; CT-26 colon carcinoma model)	toxicity of extended dosing ([3]; SA1N tumor model, 7 doses used in the concurrent regimen)	complete regressions ([3]; SA1N, sequential treatment: BRAF inhibitor 100 mg/kg Q2Dx4 from day 10, CTLA-4 mAb 20 mg/kg Q4Dx3 from day 17)	effect on the OVA-specific T cell expansion elicited by CTLA-4 mAb [4]
C#Cc1cccc(Nc2ncnc3cc(OCCOC)c(OCCOC)cc23)c1 [erlotinib, reference compound]	decreased the response	–	–	–	–	–	–
COC(=O)Nc1nc2cc(C3(O)c4ccccc4C(=O)N3c3cc(Cl)ccc3C)ccc2[nH]1 (centres unmarked)	effect similar to CTLA-4 mAb	70	77	1	toxic	no regression	enhanced CTLA-4 blockade OVA-specific T cell expansion in a dose-related manner
